{
  "source": "patent US20240033269A1",
  "about": "“PPARAXANTHINE-BASED COMPOSITIONS FOR INHIBITING INFLAMMATION, IMPROVING JOINT HEALTH, AND ENHANCING IMMUNE FUNCTION” (PX ING, LLC, priority 2022, published 2024)",
  "type_in_all_cases": "in vivo, Swiss Albino mice",
  "key": {"IL-2": {"test_system": "IL-2", "test": "Serum IL-2 by ELISA after 28 days oral treatment with treadmill exercise training", "procedure": "(§1) Sixteen 8-week-old male Swiss Albino mice were housed in an animal room at a constant temperature (22±3° C.) and humidity (30-70%) under a 12:12 h light-dark cycle with standard laboratory diet (Purina 5L79, Rat and Mouse 18% protein; PMI Nutrition International, Brentwood, MO, USA). Distilled water was provided ad libitum. All animal experiments were reviewed and approved by the Institutional Animal Ethical Committee (IAEC) of Radiant Research Services Pvt. Ltd. (Bangalore, India). All research was conducted in accordance with the guidelines of the committee for the purpose of control and supervision of experiments on animals.\n(§2) After one week of acclimation, the animals were randomly divided by body weight into two groups (n=8 per group in each test) for oral treatment once a day, at approximately the same time each day (±1 h), for 28 consecutive days: (1) vehicle control; (2) paraxanthine. The dose administered to the mice was calculated using US Food and Drug Administration for human equivalence doses (HED), assuming a human weight of 60 kg. The following HED were used in this study: 100 mg paraxanthine, (ENFINITY™, Ingenious Ingredients, L.P Lewisville, TX, USA; mouse dose: 20.5 mg/kg bw/day).\n(§3) During the treatment period, exercise training was completed using a motorized treadmill (Exer 3/6, Columbus Instruments international, Columbus, OH, USA) at a moderate intensity of 20 cm/sec as maximal running speed, an incline of 10 degrees and a shock intensity of 0.2 mA, for 10 min. The speed of the treadmill was manually adjusted by increasing the belt speed by 5 cm/sec every 2 min throughout the total duration of 10 min. All animals were adapted to this procedure daily 60 min after dosing for 5 days in a week during the treatment period.\n(§4) On 29th day, blood was collected from retro-orbital route for biochemical analysis. IL-2, IL-6, IL-10, assay was done by using standard ELISA assay kit method. The Tfh,/iTreg assay was done by using flow cytometry method."}, "IL-6": {"test_system": "IL-6", "test": "Serum IL-6 by ELISA after 28 days oral treatment with treadmill exercise training", "procedure": "as §1, §2, §3, §4"}, "IL-10": {"test_system": "IL-10", "test": "Serum IL-10 by ELISA after 28 days oral treatment with treadmill exercise training", "procedure": "as §1, §2, §3, §4"}, "C-reactive protein (CRP)": {"test_system": "C-reactive protein (CRP)", "test": "Blood C-reactive protein after 28 days oral treatment with treadmill exercise training", "procedure": "as §1, §2, §3, §4"}, "Th1": {"test_system": "Th1", "test": "Th1 cells by flow cytometry after 28 days oral treatment", "procedure": "as §1\nas §2, with “bw/day). […]” for “bw/day).”"}, "Th2": {"test_system": "Th2", "test": "Th2 cells by flow cytometry after 28 days oral treatment", "procedure": "as §1\nas §2, with “bw/day). […]” for “bw/day).”"}, "Th17": {"test_system": "Th17", "test": "Th17 cells by flow cytometry after 28 days oral treatment", "procedure": "as §1\nas §2, with “bw/day). […]” for “bw/day).”"}, "Tfh": {"test_system": "Tfh", "test": "Tfh cells by flow cytometry after 28 days oral treatment", "procedure": "as §1\nas §2, with “bw/day). […]” for “bw/day).”"}, "iTreg": {"test_system": "iTreg", "test": "iTreg cells by flow cytometry after 28 days oral treatment", "procedure": "as §1\nas §2, with “bw/day). […]” for “bw/day).”"}, "[1]": {"details": "mice, 28 days oral, versus control"}},
  "data": [
    {"smiles": "Cn1c(=O)[nH]c2ncn(C)c2c1=O", "note": "[Paraxanthine, 1,7-dimethyl-3H-purine-2,6-dione]", "values": [
      {"measurement": "Delta IL-2", "setting": "IL-2; change versus control, day 29", "value": "+23.1%"},
      {"measurement": "effect on IL-2 (in words)", "setting": "IL-2; [1]", "value": "increased"},
      {"measurement": "IL-2 (ng/L) Adaptive Immunity", "setting": "IL-2; mice, oral once daily 28 days (paraxanthine 20.5 mg/kg bw/day), blood on day 29, control 37.29 ± 1.88", "value": "45.91 ± 2.68", "unit": "ng/L"},
      {"measurement": "Delta IL-6", "setting": "IL-6; change versus control, day 29", "value": "−7.7", "unit": "%"},
      {"measurement": "effect on pro-inflammatory cytokine IL-6 (in words)", "setting": "IL-6; [1]", "value": "reduced"},
      {"measurement": "IL-6 (pg/ml) Pro-inflammatory", "setting": "IL-6; mice, oral once daily 28 days (paraxanthine 20.5 mg/kg bw/day), blood on day 29, control 369.04 ± 13", "value": "340.6 ± 13.6", "unit": "pg/mL"},
      {"measurement": "Delta IL-10", "setting": "IL-10; change versus control, day 29", "value": "+8.3%"},
      {"measurement": "effect on anti-inflammatory cytokine IL-10 (in words)", "setting": "IL-10; [1]", "value": "increased"},
      {"measurement": "IL-10 (pg/ml) Anti-inflammatory", "setting": "IL-10; mice, oral once daily 28 days (paraxanthine 20.5 mg/kg bw/day), blood on day 29, control 527.86 ± 9.22", "value": "571.71 ± 16.43", "unit": "pg/mL"},
      {"measurement": "Delta CRP", "setting": "C-reactive protein (CRP); change versus control, day 29", "value": "−18.3", "unit": "%"},
      {"measurement": "effect on C-reactive protein (CRP) (in words)", "setting": "C-reactive protein (CRP); [1]", "value": "reduced"},
      {"measurement": "CRP (mg/L) Inflammation", "setting": "C-reactive protein (CRP); mice, oral once daily 28 days (paraxanthine 20.5 mg/kg bw/day), blood on day 29, control 0.77 ± 0.09", "value": "0.64 ± 0.07", "unit": "mg/L"},
      {"measurement": "Delta Th1", "setting": "Th1; change versus control, day 29", "value": "−29.8", "unit": "%"},
      {"measurement": "Th1 (%)", "setting": "Th1; mice, oral 20.5 mg/kg bw/day 28 days, blood on day 29, control 93.54 ± 2.82", "value": "65.68 ± 3.98", "unit": "%"},
      {"measurement": "Delta Th2", "setting": "Th2; change versus control, day 29", "value": "+368.0%"},
      {"measurement": "Th2 (%)", "setting": "Th2; mice, oral 20.5 mg/kg bw/day 28 days, blood on day 29, control 11.46 ± 3.16", "value": "53.63 ± 3.85", "unit": "%"},
      {"measurement": "Delta Th17", "setting": "Th17; change versus control, day 29", "value": "+758.4%"},
      {"measurement": "Th17 (%)", "setting": "Th17; mice, oral 20.5 mg/kg bw/day 28 days, blood on day 29, control 3.65 ± 0.85", "value": "31.33 ± 1.31", "unit": "%"},
      {"measurement": "Delta Tfh", "setting": "Tfh; change versus control, day 29", "value": "+602.8%"},
      {"measurement": "Tfh (%)", "setting": "Tfh; mice, oral 20.5 mg/kg bw/day 28 days, blood on day 29, control 7.82 ± 1.04", "value": "54.96 ± 4.44", "unit": "%"},
      {"measurement": "Delta iTreg", "setting": "iTreg; change versus control, day 29", "value": "−56.5", "unit": "%"},
      {"measurement": "iTreg (%)", "setting": "iTreg; mice, oral 20.5 mg/kg bw/day 28 days, blood on day 29, control 54.47 ± 4.2", "value": "23.68 ± 2.62", "unit": "%"}
    ]}
  ]
}
